Test results reported in PubChem BioAssay (NCI).
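Assay format: 96-well plates, 48-hour exposure. At the GI50, growth is halved. TGI: concentration producing complete growth inhibition.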

Experiments:
Assay in all cases: DTP human tumour cell line panel, 48 h
NCI/ADR-RES ovarian = tested on: NCI/ADR-RES ovarian
SNB-19 CNS = tested on: SNB-19 CNS
OVCAR-4 ovarian = tested on: OVCAR-4 ovarian
MDA-MB-231 breast = tested on: MDA-MB-231 breast
T-47D breast = tested on: T-47D breast
KM12 colon = tested on: KM12 colon
U251 CNS = tested on: U251 CNS
SNB-75 CNS = tested on: SNB-75 CNS
MCF7 breast = tested on: MCF7 breast
SF-539 CNS = tested on: SF-539 CNS
RPMI-8226 leukemia = tested on: RPMI-8226 leukemia
OVCAR-3 ovarian = tested on: OVCAR-3 ovarian
UO-31 renal = tested on: UO-31 renal
SK-MEL-5 melanoma = tested on: SK-MEL-5 melanoma
A498 renal = tested on: A498 renal
HCT-15 colon = tested on: HCT-15 colon
SK-MEL-28 melanoma = tested on: SK-MEL-28 melanoma
COLO 205 colon = tested on: COLO 205 colon
HOP-92 NSCLC = tested on: HOP-92 NSCLC
UACC-62 melanoma = tested on: UACC-62 melanoma
NCI-H460 lung = tested on: NCI-H460 lung
SF-295 CNS = tested on: SF-295 CNS
HL-60(TB) leukemia = tested on: HL-60(TB) leukemia
PC-3 prostate = tested on: PC-3 prostate
RXF 393 renal = tested on: RXF 393 renal
BT-549 breast = tested on: BT-549 breast
HS 578T breast = tested on: HS 578T breast
TK-10 renal = tested on: TK-10 renal

SMILES: O=C1Nc2ccccc2/C1=C\c1c[nH]c2ccc(Br)cc12
- GI50 (NCI/ADR-RES ovarian): 2.49 µM
- TGI (NCI/ADR-RES ovarian): 7.04 µM
- GI50 (SNB-19 CNS): 3.71 µM
- TGI (SNB-19 CNS): 25.5 µM
- GI50 (OVCAR-4 ovarian): 2.7 µM
- TGI (OVCAR-4 ovarian): 22.5 µM
- GI50 (MDA-MB-231 breast): 1.63 µM
- TGI (MDA-MB-231 breast): 3.24 µM
- GI50 (T-47D breast): 3.65 µM
- TGI (T-47D breast): 30.3 µM
- GI50 (KM12 colon): 0.633 µM
- TGI (KM12 colon): 2.37 µM
- GI50 (U251 CNS): 2.39 µM
- TGI (U251 CNS): 7.09 µM
- GI50 (SNB-75 CNS): 2.68 µM
- TGI (SNB-75 CNS): 9.37 µM
- GI50 (MCF7 breast): 2.43 µM
- TGI (MCF7 breast): 11.2 µM
- GI50 (SF-539 CNS): 4.77 µM
- TGI (SF-539 CNS): 17.1 µM
- GI50 (RPMI-8226 leukemia): 2.32 µM
- TGI (RPMI-8226 leukemia): 7.93 µM
- GI50 (OVCAR-3 ovarian): 2.29 µM
- TGI (OVCAR-3 ovarian): 5.58 µM
- GI50 (UO-31 renal): 2.22 µM
- TGI (UO-31 renal): 8.79 µM
- GI50 (SK-MEL-5 melanoma): 4.41 µM
- TGI (SK-MEL-5 melanoma): 17.2 µM
- GI50 (A498 renal): 1.88 µM
- TGI (A498 renal): 6.31 µM
- GI50 (HCT-15 colon): 2.12 µM
- TGI (HCT-15 colon): 5.59 µM
- GI50 (SK-MEL-28 melanoma): 4.16 µM
- TGI (SK-MEL-28 melanoma): 20.9 µM
- GI50 (COLO 205 colon): 1.77 µM
- TGI (COLO 205 colon): 3.23 µM
- GI50 (HOP-92 NSCLC): 0.573 µM
- TGI (HOP-92 NSCLC): 3.3 µM
- GI50 (UACC-62 melanoma): 1.71 µM
- TGI (UACC-62 melanoma): 3.72 µM
- GI50 (NCI-H460 lung): 2.11 µM
- TGI (NCI-H460 lung): 4.98 µM
- GI50 (SF-295 CNS): 3.99 µM
- TGI (SF-295 CNS): 21.6 µM
- GI50 (HL-60(TB) leukemia): 2.79 µM
- TGI (HL-60(TB) leukemia): 7.88 µM
- GI50 (PC-3 prostate): 2.42 µM
- TGI (PC-3 prostate): 10.3 µM
- GI50 (RXF 393 renal): 3.01 µM
- TGI (RXF 393 renal): 8.72 µM
- GI50 (BT-549 breast): 4.26 µM
- TGI (BT-549 breast): 19.5 µM
- GI50 (HS 578T breast): 2.2 µM
- TGI (HS 578T breast): 8.33 µM
- GI50 (TK-10 renal): 3.99 µM
- TGI (TK-10 renal): 9.5 µM
